{"source": "ChEMBL document CHEMBL5113380", "about": "“Functionalized quinoxalinones as privileged structures with broad-ranging pharmacological activities” (Eur J Med Chem, 2022)", "key": {"[1]": {"organism": "Homo sapiens", "assay": "Ratio IC50 for inhibition of JNK2 (unknown origin) over JNK3 (unknown origin)"}, "[2]": {"organism": "Homo sapiens", "assay": "Ratio IC50 for inhibition of JNK1 (unknown origin) over JNK3 (unknown origin)"}, "[3]": {"biological_target": "Trypsin (Homo sapiens, UniProt P07477+P07478+P35030)", "assay": "Inhibition of trypsin (unknown origin)", "assay_type": "protein assay"}, "[4]": {"test_system": "Geobacillus stearothermophilus", "assay": "Antibacterial activity against Bacillus stearothermophilus", "assay_type": "functional"}, "[5]": {"test_system": "Escherichia coli", "assay": "Antibacterial activity against Escherichia coli", "assay_type": "functional"}, "[6]": {"test_system": "Bacillus cereus", "assay": "Antibacterial activity against Bacillus cereus", "assay_type": "functional"}, "[7]": {"test_system": "Klebsiella pneumoniae", "assay": "Antibacterial activity against Klebsiella pneumoniae", "assay_type": "functional"}, "[8]": {"test_system": "Bacillus subtilis", "assay": "Antibacterial activity against Bacillus subtilis", "assay_type": "functional"}, "[9]": {"test_system": "Enterococcus faecalis", "assay": "Antibacterial activity against Enterococcus faecalis", "assay_type": "functional"}, "[10]": {"test_system": "Shigella dysenteriae", "assay": "Antibacterial activity against Shigella dysenteriae", "assay_type": "functional"}, "[11]": {"test_system": "Pseudomonas aeruginosa", "assay": "Antibacterial activity against Pseudomonas aeruginosa", "assay_type": "functional"}, "[12]": {"test_system": "Bacillus anthracis", "assay": "Antibacterial activity against Bacillus anthracis", "assay_type": "functional"}, "[13]": {"test_system": "Anopheles sp.", "assay": "Larvicidal activity against Anopheles at 0.25 ug/ml", "assay_type": "functional", "settings": "dose 0.25 µg/ml"}, "[14]": {"test_system": "Anopheles sp.", "assay": "Larvicidal activity against Anopheles at 0.1 ug/ml", "assay_type": "functional", "settings": "dose 0.1 µg/ml"}, "[15]": {"test_system": "Anopheles sp.", "assay": "Larvicidal activity against Anopheles at 1 ug/ml", "assay_type": "functional", "settings": "dose 1.0 µg/ml"}, "[16]": {"test_system": "Anopheles sp.", "assay": "Larvicidal activity against Anopheles at 0.5 ug/ml", "assay_type": "functional", "settings": "dose 0.5 µg/ml"}, "[17]": {"biological_target": "Kappa-type opioid receptor (Homo sapiens, UniProt P41145)", "sequence (P41145 whole entry)": "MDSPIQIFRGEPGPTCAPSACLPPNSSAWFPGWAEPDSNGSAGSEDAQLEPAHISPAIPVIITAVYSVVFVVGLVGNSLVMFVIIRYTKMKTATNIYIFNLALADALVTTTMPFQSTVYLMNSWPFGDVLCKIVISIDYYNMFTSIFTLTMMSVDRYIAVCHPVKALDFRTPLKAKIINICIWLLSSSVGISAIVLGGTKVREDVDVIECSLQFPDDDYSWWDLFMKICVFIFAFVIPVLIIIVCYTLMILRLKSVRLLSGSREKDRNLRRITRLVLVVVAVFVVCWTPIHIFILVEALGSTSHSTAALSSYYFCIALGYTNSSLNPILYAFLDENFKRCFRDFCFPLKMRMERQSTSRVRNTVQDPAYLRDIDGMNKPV", "assay": "Antagonist at KOR expressed in human U2OS cells measured by High content imaging based beta-arrestin translocation assay", "assay_type": "cell-based"}, "[18]": {"test_system": "HeLa S3", "assay": "Cytotoxicity against human HeLa S3 cells", "assay_type": "functional, cell-based"}, "[19]": {"assay": "Aqueous solubility of the compound", "assay_type": "physicochemical", "settings": "buffer"}, "[20]": {"biological_target": "Glutamate [NMDA] receptor", "assay": "Displacement of [3H]L-689560 from NMDA receptor (unknown origin)", "assay_type": "protein-complex assay, Homo sapiens"}, "[21]": {"biological_target": "Glutamate [NMDA] receptor", "assay": "Displacement of [3H]NMDA from NMDA receptor (unknown origin)", "assay_type": "protein-complex assay, Homo sapiens"}, "[22]": {"test_system": "Toxoplasma gondii", "assay": "Anti-tachyzoite activity against Toxoplasma gondii at 100 uM", "assay_type": "functional, type III"}, "[23]": {"test_system": "Staphylococcus aureus", "assay": "Antibacterial activity against Staphylococcus aureus", "assay_type": "functional"}, "[24]": {"test_system": "Candida", "assay": "Antifungal activity against Candida species", "assay_type": "functional"}, "[25]": {"biological_target": "Glutamate [NMDA] receptor", "assay": "Displacement of [3H]DCKA from NMDA receptor (unknown origin)", "assay_type": "protein-complex assay, Homo sapiens"}, "[26]": {"biological_target": "Glutamate [NMDA] receptor (Homo sapiens) (UniProt Q05586+Q12879+Q13224+O15399+O60391+Q14957+Q8TCU5)", "assay": "Displacement of [3H]DCKA from NMDA receptor (unknown origin) at 10 ng/ml relative to control", "assay_type": "protein-complex assay", "settings": "filed as antagonist"}, "[27]": {"biological_target": "Glutamate receptor ionotropic AMPA (Homo sapiens, UniProt P42261+P42262+P42263+P48058)", "assay": "Antagonist activity at AMPA receptor (unknown origin)", "assay_type": "protein-complex assay"}, "[28]": {"organism": "Homo sapiens", "assay": "Binding affinity to Creatine kinase (CK) (unknown origin) relative to control"}, "[29]": {"assay": "Binding affinity to estrogen receptor (unknown origin)", "set-up": "species or system Homo sapiens"}, "[30]": {"assay": "Metabolic stability in rat liver microsomes assessed as half-life", "assay_type": "ADME, Microsome"}, "[31]": {"assay": "Aqueous solubility of the compound at pH 7.4", "assay_type": "physicochemical", "settings": "buffer"}, "[32]": {"organism": "Homo sapiens", "assay": "Binding affinity to estrogen receptor (unknown origin) relative to control"}, "[33]": {"assay": "Binding affinity to Creatine kinase (CK) (unknown origin)", "set-up": "species or system Homo sapiens"}, "[34]": {"biological_target": "Glutamate [NMDA] receptor", "assay": "Displacement of [3H]kainic acid from NMDA receptor (unknown origin)", "assay_type": "protein-complex assay, Homo sapiens"}, "[35]": {"assay": "Displacement of [3H]AMPA from NMDA receptor (unknown origin)", "assay_type": "protein-complex assay, Homo sapiens"}, "[36]": {"biological_target": "Glutamate [NMDA] receptor", "assay": "Displacement of [3H]CGP-39653 from NMDA receptor (unknown origin)", "assay_type": "protein-complex assay, Homo sapiens"}, "[37]": {"test_system": "HT-29", "assay": "Antiproliferative activity against human HT-29 cells", "assay_type": "functional, cell-based"}, "[38]": {"test_system": "HeLa", "assay": "Antiproliferative activity against human HeLa cells", "assay_type": "functional, cell-based"}, "[39]": {"test_system": "SMMC-7721", "assay": "Antiproliferative activity against human SMMC-7721 cells", "assay_type": "functional, cell-based"}, "[40]": {"test_system": "Streptococcus pneumoniae", "assay": "Antibacterial activity against Streptococcus pneumoniae assessed as diameter zone of inhibition", "assay_type": "functional"}, "[41]": {"test_system": "Pseudomonas aeruginosa", "assay": "Antibacterial activity against Pseudomonas aeruginosa assessed as diameter zone of inhibition", "assay_type": "functional"}}}
{"smiles": "N#Cc1ccc2c(c1)N/C(=C\\C(=O)c1cccc3ccccc13)C(=O)N2", "values": [{"measurement": "Ratio IC50", "setting": "[1]", "value": "> 500"}, {"measurement": "Ratio IC50", "setting": "[2]", "value": "> 500"}]}
{"smiles": "Cn1c(=O)c(Cc2ccc(C(=N)N)cc2)nc2cc(C3(C(=O)N4CCCC4C(=O)NCC(=O)O)CC3)ccc21", "note": "(centres undefined)", "values": [{"measurement": "IC50", "setting": "[3]", "value": 2400, "unit": "nM"}]}
{"smiles": "O=C1CC(c2ccccc2)=NN1c1nc2ccccc2[nH]c1=O", "values": [{"measurement": "MIC", "setting": "[4]", "value": 15.6, "unit": "µg/mL"}, {"measurement": "MIC", "setting": "[5]", "value": 15.6, "unit": "µg/mL"}, {"measurement": "MIC", "setting": "[6]", "value": 7.8, "unit": "µg/mL"}, {"measurement": "MIC", "setting": "[7]", "value": 7.8, "unit": "µg/mL"}, {"measurement": "MIC", "setting": "[8]", "value": 7.8, "unit": "µg/mL"}, {"measurement": "MIC", "setting": "[9]", "value": 7.8, "unit": "µg/mL"}, {"measurement": "MIC", "setting": "[10]", "value": 62.5, "unit": "µg/mL"}, {"measurement": "MIC", "setting": "[11]", "value": 31.3, "unit": "µg/mL"}, {"measurement": "MIC", "setting": "[12]", "value": 7.8, "unit": "µg/mL"}]}
{"smiles": "COc1ccc2nc(-c3ccccc3)c(=O)n(CC#N)c2c1", "values": [{"measurement": "Activity", "setting": "[13]", "value": 66.7, "unit": "%"}, {"measurement": "Activity", "setting": "[14]", "value": 60, "unit": "%"}, {"measurement": "Activity", "setting": "[15]", "value": 73.7, "unit": "%"}, {"measurement": "Activity", "setting": "[16]", "value": 66.7, "unit": "%"}]}
{"smiles": "Cn1c(=O)c(Cc2ccc(C(=N)N)cc2)nc2cc(C3(N(C(=O)CC(=O)O)C4CCCC4)CC3)ccc21", "values": [{"measurement": "IC50", "setting": "[3]", "value": 550, "unit": "nM"}]}
{"smiles": "COc1ccc(N2CCN(CCCNC(=O)CN3C(=O)C4CCCN4c4c(C)ccnc43)CC2)cc1", "note": "(centres undefined)", "values": [{"measurement": "IC50", "setting": "[17]", "value": 2820, "unit": "nM"}]}
{"smiles": "O=C1Nc2ccccc2N/C1=C\\C(=O)c1cccc2ccccc12", "values": [{"measurement": "Ratio IC50", "setting": "[1]", "value": "> 400"}, {"measurement": "Ratio IC50", "setting": "[2]", "value": "> 400"}]}
{"smiles": "CCC(C)C1Nc2ccccc2NC1=O", "note": "(centres undefined)", "values": [{"measurement": "IC50", "setting": "[18]", "value": 17200, "unit": "nM"}]}
{"smiles": "CCCn1cnc(Cc2c(Cl)c(Cl)cc3nc(O)c(O)nc23)c1", "values": [{"measurement": "solubility", "setting": "[19]", "value": "> 10000", "unit": "µg/mL"}, {"measurement": "IC50", "setting": "[20]", "value": 4.4, "unit": "nM"}, {"measurement": "IC50", "setting": "[21]", "value": 350, "unit": "nM"}]}
{"smiles": "O=C1CN(CCCCCN2CCCCC2)c2ccc([N+](=O)[O-])cc2N1", "values": [{"measurement": "Activity", "setting": "[22]", "value": 92, "unit": "%"}]}
{"smiles": "O=c1[nH]c2cc3cccnc3c(Cl)c2nc1CBr", "values": [{"measurement": "MIC", "setting": "[23]", "value": 31.2, "unit": "µg/mL"}, {"measurement": "MIC", "setting": "[24]", "value": 31.2, "unit": "µg/mL"}, {"measurement": "MIC", "setting": "[5]", "value": 31.2, "unit": "µg/mL"}, {"measurement": "MIC", "setting": "[11]", "value": 31.2, "unit": "µg/mL"}]}
{"smiles": "O=C(O)CC1CCc2cc(Cl)cc3[nH]c(=O)c(=O)n1c23", "note": "(centres undefined)", "values": [{"measurement": "Ki", "setting": "[25]", "value": 5.1, "unit": "nM"}, {"measurement": "Activity", "setting": "[26]", "value": 90.3, "unit": "%"}]}
{"smiles": "Cc1cc2[nH]c(=O)c(=O)n(C[C@@H](N)C(=O)O)c2cc1C", "values": [{"measurement": "EC50", "setting": "[27]", "value": 300000, "unit": "nM"}]}
{"smiles": "CCC(c1c(Cl)c(Cl)cc2nc(O)c(O)nc12)n1cnnc1", "note": "(centres undefined)", "values": [{"measurement": "solubility", "setting": "[19]", "value": "> 5000", "unit": "µg/mL"}, {"measurement": "IC50", "setting": "[20]", "value": 2.6, "unit": "nM"}, {"measurement": "IC50", "setting": "[21]", "value": 90, "unit": "nM"}]}
{"smiles": "CC[C@H]1C(=O)N(CC)c2ccc(F)cc2N1C(=O)c1ccc(O)cc1O", "values": [{"measurement": "Activity", "setting": "[28]", "value": 44, "unit": "%"}, {"measurement": "IC50", "setting": "[29]", "value": 5.4, "unit": "nM"}, {"measurement": "half-life", "setting": "[30]", "value": "> 30", "unit": "min"}, {"measurement": "solubility", "setting": "[31]", "value": "> 100", "unit": "µg/mL"}, {"measurement": "Activity", "setting": "[32]", "value": 92, "unit": "%"}, {"measurement": "EC50", "setting": "[33]", "value": 50, "unit": "nM"}]}
{"smiles": "O=C(O)CC1CCc2cc(Br)cc3[nH]c(=O)c(=O)n1c23", "note": "(centres undefined)", "values": [{"measurement": "IC50", "setting": "[34]", "value": "> 30000", "unit": "nM"}, {"measurement": "IC50", "setting": "[35]", "value": 4600, "unit": "nM"}, {"measurement": "Ki", "setting": "[25]", "value": 9.9, "unit": "nM"}, {"measurement": "IC50", "setting": "[36]", "value": "> 30000", "unit": "nM"}]}
{"smiles": "COC(=O)c1ccc2c(c1)NCCN2Cc1cc(OC)c(OC)c(OC)c1", "values": [{"measurement": "IC50", "setting": "[37]", "value": 510, "unit": "nM"}, {"measurement": "IC50", "setting": "[38]", "value": 194, "unit": "nM"}, {"measurement": "IC50", "setting": "[39]", "value": 427, "unit": "nM"}]}
{"smiles": "O=C1CN(C(=O)CCl)c2ccccc2N1", "values": [{"measurement": "diameter of the inhibition zone (DIZ)", "setting": "[40]", "value": 16, "unit": "mm"}, {"measurement": "diameter of the inhibition zone (DIZ)", "setting": "[41]", "value": 15, "unit": "mm"}]}
{"smiles": "C=Cn1c(=O)c(-c2ccccc2)nc2ccc(OC)cc21", "values": [{"measurement": "Activity", "setting": "[13]", "value": 100, "unit": "%"}, {"measurement": "Activity", "setting": "[14]", "value": 80, "unit": "%"}, {"measurement": "Activity", "setting": "[15]", "value": 100, "unit": "%"}, {"measurement": "Activity", "setting": "[16]", "value": 100, "unit": "%"}]}
